Assay results from the NIST ThermoML archive (doi:10.1021/je060271a).
Several values for one entry are separate records, joined by “and”; a condition that tells them apart may be missing. Equal values may be shown once.

Settings: 323.16 K, Liquid, Vibrating tube method

CCCCCC(=O)OCC(COC(=O)CCCCC)(COC(=O)CCCCC)COC(=O)CCCCC [pentaerythritol tetrahexanoate]
Settings | mass density
1057.9 kPa | 973.4 kg/m3
1108.4 kPa | 973.5 kg/m3
1111.9 kPa | 973.6 kg/m3
1116.1 kPa | 973.5 kg/m3
1120.2 kPa | 973.4 kg/m3
1124.1 kPa | 973.4 kg/m3
1169 kPa | 973.6 kg/m3
1173 kPa | 973.5 kg/m3
1178.4 kPa | 973.6 kg/m3
1182.7 kPa | 973.5 kg/m3
1188.3 kPa | 973.4 kg/m3
1192.5 kPa | 973.4 kg/m3
1197 kPa | 973.5 kg/m3
1201.3 kPa | 973.4 kg/m3
1206.2 kPa | 973.5 kg/m3
1211.4 kPa | 973.6 kg/m3
1215.4 kPa | 973.6 kg/m3
1219.4 kPa | 973.6 kg/m3
1224.6 kPa | 973.5 kg/m3
1228.9 kPa | 973.6 kg/m3
1234 kPa | 973.5 kg/m3
1239.2 kPa | 973.4 kg/m3
1336.1 kPa | 973.5 kg/m3
1340.9 kPa | 973.6 kg/m3
1346.8 kPa | 973.6 kg/m3
1352 kPa | 973.7 kg/m3
1357.4 kPa | 973.6 kg/m3
1362.4 kPa | 973.6 kg/m3
1368 kPa | 973.6 kg/m3
1372.9 kPa | 973.7 kg/m3
1383.8 kPa | 973.7 kg/m3
1389.5 kPa | 973.7 kg/m3
1395.4 kPa | 973.6 kg/m3
1400.6 kPa | 973.7 kg/m3
1405.7 kPa | 973.7 kg/m3
1542.7 kPa | 973.7 kg/m3
1548.7 kPa | 973.7 kg/m3
1555.9 kPa | 973.7 kg/m3
1561.4 kPa | 973.8 kg/m3
1568.9 kPa | 973.8 kg/m3
1574.8 kPa | 973.8 kg/m3
1580.3 kPa | 973.9 kg/m3
1587.3 kPa | 973.9 kg/m3
1592.8 kPa | 974 kg/m3
1784.1 kPa | 973.9 kg/m3
1792.4 kPa | 974 kg/m3
1799.4 kPa | 973.9 kg/m3
1808.1 kPa | 974 kg/m3
1815.2 kPa | 974 kg/m3
1823.9 kPa | 974 kg/m3
1831.3 kPa | 974 kg/m3
1839.8 kPa | 974 kg/m3
1848.7 kPa | 974 kg/m3
1856.1 kPa | 973.9 kg/m3
1864.5 kPa | 974 kg/m3
1872.1 kPa | 974 kg/m3
1879.9 kPa | 973.9 kg/m3
1889.3 kPa | 974 kg/m3
1998.3 kPa | 974 kg/m3
2007.3 kPa | 974 kg/m3
2015.3 kPa | 974.1 kg/m3
2024.8 kPa | 974.2 kg/m3
2032.8 kPa | 974.2 kg/m3
2042.2 kPa | 974.1 kg/m3
2051.9 kPa | 974.2 kg/m3
2078.2 kPa | 974.2 kg/m3
2086.8 kPa | 974.2 kg/m3
2097.3 kPa | 974.1 kg/m3
2105.3 kPa | 974.2 kg/m3
2275.9 kPa | 974.3 kg/m3
2285.6 kPa | 974.2 kg/m3
2297.5 kPa | 974.3 kg/m3
2309.2 kPa | 974.3 kg/m3
2319 kPa | 974.3 kg/m3
2329.5 kPa | 974.3 kg/m3
2339.5 kPa | 974.4 kg/m3
2350.8 kPa | 974.3 kg/m3
2360.3 kPa | 974.3 kg/m3
2372.6 kPa | 974.1 kg/m3
2382.7 kPa | 974.2 kg/m3
2394.7 kPa | 974.5 kg/m3
2404.4 kPa | 974.2 kg/m3
2416.5 kPa | 974.4 kg/m3
2428.5 kPa | 974.4 kg/m3
2438.7 kPa | 974.4 kg/m3
2448.6 kPa | 974.5 kg/m3
2460.9 kPa | 974.4 kg/m3
2471.7 kPa | 974.4 kg/m3
2484.5 kPa | 974.5 kg/m3
3633.2 kPa | 975.3 kg/m3
3649.5 kPa | 975.3 kg/m3
3663.4 kPa | 975.2 kg/m3
3679.8 kPa | 975.3 kg/m3
3696.6 kPa | 975.2 kg/m3
3710.8 kPa | 975.3 kg/m3
3725 kPa | 975.2 kg/m3
3741.8 kPa | 975.2 kg/m3
3756 kPa | 975.3 kg/m3
3773.4 kPa | 975.3 kg/m3
3790.9 kPa | 975.4 kg/m3
9966.7 kPa | 979.5 kg/m3
9977.9 kPa | 979.5 kg/m3
10002 kPa | 979.7 kg/m3
10012 kPa | 979.7 kg/m3
10025 kPa | 979.6 kg/m3
10037 kPa | 979.6 kg/m3
10040 kPa | 979.6 kg/m3
10048 kPa | 979.7 kg/m3
10060 kPa | 979.7 kg/m3
10071 kPa | 979.8 kg/m3
10084 kPa | 979.7 kg/m3
10096 kPa | 979.7 kg/m3
11088 kPa | 980.3 kg/m3
11101 kPa | 980.4 kg/m3
11112 kPa | 980.3 kg/m3
11122 kPa | 980.3 kg/m3
11136 kPa | 980.4 kg/m3
11150 kPa | 980.5 kg/m3
11155 kPa | 980.3 kg/m3
11157 kPa | 980.4 kg/m3
11160 kPa | 980.4 kg/m3
11163 kPa | 980.4 kg/m3
11168 kPa | 980.4 kg/m3
11174 kPa | 980.3 kg/m3
11186 kPa | 980.4 kg/m3
11198 kPa | 980.4 kg/m3
11199 kPa | 980.3 kg/m3
11200 kPa | 980.4 kg/m3
12660 kPa | 981.3 kg/m3
12684 kPa | 981.3 kg/m3
12713 kPa | 981.5 kg/m3
12737 kPa | 981.5 kg/m3
12767 kPa | 981.4 kg/m3
12791 kPa | 981.5 kg/m3
12819 kPa | 981.5 kg/m3
12848 kPa | 981.4 kg/m3
12871 kPa | 981.5 kg/m3
12899 kPa | 981.4 kg/m3
15446 kPa | 983.2 kg/m3
15470 kPa | 983.2 kg/m3
15500 kPa | 983.1 kg/m3
16331 kPa | 983.8 kg/m3 and 983.7 kg/m3
16333 kPa | 983.7 kg/m3
16334 kPa | 983.8 kg/m3 and 983.7 kg/m3
16336 kPa | 983.8 kg/m3
